Entries after “also recorded” stand apart in the source; their conditions may differ. Where two headings read alike, the source gives them in different places.
Key:
[1] = test system: viral glycoproteins (GRFN-1 binding; gp120LAV chip); assay: SPR competition of saccharides with GRFN-1 binding; set-up: species or system HIV-1
From the text: α-D-mannopyranose (Man), L-fucopyranose (Fuc), α-D-galactopyranose (Gal), sialic acid (N-acetyl-neuraminic acid, Neu5Ac), N-acetyl-glucosamine (GlcNAc) and Man3(GlcNAc)2, a core pentasaccharide found in most N-linked oligosaccharides. All of these saccharides were purchased from Sigma-Aldrich (St. Louis, MO).

[2] = test system: HIV-1 (BaL); format: cell-based; settings: TZM-bl assay; for EC50: HIV-1 BaL (R5), 24 hr, luciferase activity
Protocol: The ability of the analogs to inhibit HIV infection was determined with an assay that determines viral infectivity with an LTR-mediated luciferase reporter construct [37]. In brief, TZM-bl reporter cells are HeLa-derived JC53-BL cells that express high levels of CD4, CXCR4, and CCR5. They also contain reporter cassettes for luciferase and β-galactosidase, both driven by the HIV-1 long terminal repeat [38]). 24 hr after these reporter cells were exposed to R5 lab-adapted strains of HIV-1 (BaL) in the presence of peptides, protection was measured as % reduction in luciferase activity (relative light units) compared to cells infected with virus and peptide vehicle alone.

[3] = test system: CCR5 (HIV-1BAL); assay: p24^gag antigen release assay using PBMCs, CCR5 strain; format: cell-based; settings: PBMC based p24^gag antigen release assay
[4] = test system: HIV-1; settings: read-out: average EC50; anti-HIV inhibitory activity; ref [20], [21]; cited from earlier work
From the text: Preventing HIV-1 infection is the primary goal of pre- and post-exposure prophylaxis of HIV. Prophylactic modalities that block HIV-1 entry would be particularly valuable, because latent HIV-1 infections are typically refractory to therapeutic or immunological interventions [1]–[9]. […] Most anti-HIV lectins have been identified in and isolated from natural sources. They include cyanovirin-N [11], [12] and scytovirin [13] from cyanobac ...

[5] = test system: CXCR4 (HIV-1IIIB); assay: p24^gag antigen release assay using PBMCs, CXCR4 strain; format: cell-based; settings: PBMC based p24^gag antigen release assay

## CC(=O)N[C@@H]1[C@@H](O)[C@H](O)[C@@H](CO)O[C@H]1O [GlcNAc, N-acetyl-glucosamine]
[1]; pH = 7.4
  competition with binding of GRFN-1 to viral glycoproteins (in words): interacted with all of these sugars, except fucose; also recorded: the most effective competitors

## CC[C@H](C)[C@@H]1NC(=O)CNC(=O)[C@H](CCCCN)NC(=O)CNC(=O)[C@@H]2CSSC[C@H](NC1=O)C(=O)N[C@@H](CCCNC(=N)N)C(=O)N[C@H]1CSSC[C@H](NC(=O)[C@H](CCCNC(=N)N)NC(=O)[C@@H]3CSSC[C@H](NC(=O)[C@H]([C@@H](C)CC)NC1=O)C(=O)NCC(=O)N[C@@H](CCCNC(=N)N)C(=O)NCC(=O)N[C@@H]([C@@H](C)CC)C(=O)N3)C(=O)N[C@@H]([C@@H](C)CC)C(=O)N2 [RC-101, reference compound]
[2]
  EC50: 3400 nM

## O=C[C@H](O)[C@@H](O)[C@@H](O)[C@H](O)CO [galactose, α-D-galactopyranose]
[1]; pH = 7.4
  competition with binding of GRFN-1 to viral glycoproteins (in words): interacted with all of these sugars, except fucose

## OC[C@H]1O[C@H](O)[C@@H](O)[C@@H](O)[C@@H]1O [mannose, α-D-mannopyranose]
[1]; pH = 7.4
  competition with binding of GRFN-1 to viral glycoproteins (in words): interacted with all of these sugars, except fucose; also recorded: the most effective competitors
[1]; pH = 7.4, listed as D-Mannose
  competition with binding of GRFN-1 to viral glycoproteins (in words): especially potent inhibitor that could almost completely abrogate binding of GRFN-1 to the viral glycoproteins

## CC(=O)N[C@H]1[C@H]([C@H](O)[C@H](O)CO)OC(O)(C(=O)O)C[C@@H]1O (stereo partly drawn) [sialic acid, N-acetyl-neuraminic acid]
[1]; pH = 7.4
  competition with binding of GRFN-1 to viral glycoproteins (in words): interacted with all of these sugars, except fucose; also recorded: less profound

## Cha-SC-Chg-R-Chg-RSGSY-Cha-DR-Ch\g-R-Chg-(D)Cys-CONH2 (disulfide) [GRFN-2, otherwise identical peptide with an Asn to Arg substitution]
[2]; dose response, Figure 4
  antiviral activity (in words): considerably less active than GRFN-1

## Man3GlcNAc2
[1]; pH = 7.4
  competition with binding of GRFN-1 to viral glycoproteins (in words): interacted with all of these sugars, except fucose

## griffithsin
[3]
  antiviral activity (in words): maintained their antiviral activity
[4]
  EC50: 0.04 nM
[2]; griffithsin
  EC50: 0.0196 ± 0.0019 nM
[5]
  antiviral activity (in words): maintained their antiviral activity

Reference: publication PMC3002932 (PLoS ONE, 2010)
